Legend:
JAK 2 = JAK 2 (Homo sapiens, UniProt O60674); test: Biochemical potency on JAK2, TR-FRET LANCE Ultra kinase assay (examples 1-99); conditions: ATP at Km (0.7 μM), read-out: JAK2 inhibitory activity (pIC50 class) (converted)
Method in brief: (§1)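 Each JAK isoform (human) was tested separately in a peptide-phosphorylation TR-FRET assay at ATP ≈ Km. Eleven compound concentrations, top 20 μM, 5-fold spacing. Values are IC50s from normalized-response curve fits.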

TYK2 = TYK2 (Homo sapiens, UniProt P29597); test: Biochemical potency on Tyk2, TR-FRET LANCE Ultra kinase assay (examples 1-99); conditions: ATP at Km (12 μM), read-out: Tyk2 inhibitory activity (pIC50 class) (converted)
Method in brief: as §1

JAK 3 = target: T1, JAK 3 (Homo sapiens, UniProt P52333); test: Biochemical potency on JAK3, TR-FRET LANCE Ultra kinase assay (examples 1-99); conditions: ATP at Km (0.2 μM), read-out: JAK3 inhibitory activity (pIC50 class) (converted)
T1 sequence (P52333 1-1124): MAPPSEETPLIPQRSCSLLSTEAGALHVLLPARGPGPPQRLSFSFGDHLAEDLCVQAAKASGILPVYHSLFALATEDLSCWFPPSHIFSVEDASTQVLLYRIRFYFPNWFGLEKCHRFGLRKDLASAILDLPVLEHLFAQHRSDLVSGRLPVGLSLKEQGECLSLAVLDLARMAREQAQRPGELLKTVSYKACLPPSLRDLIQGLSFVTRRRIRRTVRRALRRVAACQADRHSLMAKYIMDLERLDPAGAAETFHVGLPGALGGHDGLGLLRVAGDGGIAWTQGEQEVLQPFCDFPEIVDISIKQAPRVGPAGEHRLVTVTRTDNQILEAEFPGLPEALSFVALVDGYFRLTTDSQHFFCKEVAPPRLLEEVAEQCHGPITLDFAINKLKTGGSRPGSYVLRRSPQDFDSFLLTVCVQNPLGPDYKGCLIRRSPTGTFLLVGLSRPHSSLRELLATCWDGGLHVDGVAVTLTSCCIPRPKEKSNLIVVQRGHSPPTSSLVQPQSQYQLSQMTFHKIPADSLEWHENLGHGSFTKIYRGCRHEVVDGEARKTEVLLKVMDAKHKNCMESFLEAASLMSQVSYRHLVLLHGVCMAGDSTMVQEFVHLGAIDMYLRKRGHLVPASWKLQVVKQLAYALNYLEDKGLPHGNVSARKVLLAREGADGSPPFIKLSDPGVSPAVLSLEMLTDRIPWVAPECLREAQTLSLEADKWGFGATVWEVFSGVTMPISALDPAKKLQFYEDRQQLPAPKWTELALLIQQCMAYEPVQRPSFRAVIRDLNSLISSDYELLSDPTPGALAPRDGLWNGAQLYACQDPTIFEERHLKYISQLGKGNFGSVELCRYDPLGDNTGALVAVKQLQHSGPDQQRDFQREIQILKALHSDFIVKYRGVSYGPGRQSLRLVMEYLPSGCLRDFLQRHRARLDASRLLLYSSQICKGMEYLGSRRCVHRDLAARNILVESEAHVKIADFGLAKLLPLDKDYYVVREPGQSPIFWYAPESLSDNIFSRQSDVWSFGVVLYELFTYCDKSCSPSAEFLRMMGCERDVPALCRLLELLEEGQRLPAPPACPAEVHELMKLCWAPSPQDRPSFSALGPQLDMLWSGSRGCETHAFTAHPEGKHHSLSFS
Method in brief: as §1

JAK 1 = JAK 1 (Homo sapiens, UniProt P23458); test: Biochemical potency on JAK1, TR-FRET LANCE Ultra kinase assay (examples 1-99); conditions: ATP at Km (20 μM), read-out: JAK1 inhibitory activity (pIC50 class) (converted)
Method in brief: as §1

Chain of JAK 2 (O60674 whole entry, canonical isoform): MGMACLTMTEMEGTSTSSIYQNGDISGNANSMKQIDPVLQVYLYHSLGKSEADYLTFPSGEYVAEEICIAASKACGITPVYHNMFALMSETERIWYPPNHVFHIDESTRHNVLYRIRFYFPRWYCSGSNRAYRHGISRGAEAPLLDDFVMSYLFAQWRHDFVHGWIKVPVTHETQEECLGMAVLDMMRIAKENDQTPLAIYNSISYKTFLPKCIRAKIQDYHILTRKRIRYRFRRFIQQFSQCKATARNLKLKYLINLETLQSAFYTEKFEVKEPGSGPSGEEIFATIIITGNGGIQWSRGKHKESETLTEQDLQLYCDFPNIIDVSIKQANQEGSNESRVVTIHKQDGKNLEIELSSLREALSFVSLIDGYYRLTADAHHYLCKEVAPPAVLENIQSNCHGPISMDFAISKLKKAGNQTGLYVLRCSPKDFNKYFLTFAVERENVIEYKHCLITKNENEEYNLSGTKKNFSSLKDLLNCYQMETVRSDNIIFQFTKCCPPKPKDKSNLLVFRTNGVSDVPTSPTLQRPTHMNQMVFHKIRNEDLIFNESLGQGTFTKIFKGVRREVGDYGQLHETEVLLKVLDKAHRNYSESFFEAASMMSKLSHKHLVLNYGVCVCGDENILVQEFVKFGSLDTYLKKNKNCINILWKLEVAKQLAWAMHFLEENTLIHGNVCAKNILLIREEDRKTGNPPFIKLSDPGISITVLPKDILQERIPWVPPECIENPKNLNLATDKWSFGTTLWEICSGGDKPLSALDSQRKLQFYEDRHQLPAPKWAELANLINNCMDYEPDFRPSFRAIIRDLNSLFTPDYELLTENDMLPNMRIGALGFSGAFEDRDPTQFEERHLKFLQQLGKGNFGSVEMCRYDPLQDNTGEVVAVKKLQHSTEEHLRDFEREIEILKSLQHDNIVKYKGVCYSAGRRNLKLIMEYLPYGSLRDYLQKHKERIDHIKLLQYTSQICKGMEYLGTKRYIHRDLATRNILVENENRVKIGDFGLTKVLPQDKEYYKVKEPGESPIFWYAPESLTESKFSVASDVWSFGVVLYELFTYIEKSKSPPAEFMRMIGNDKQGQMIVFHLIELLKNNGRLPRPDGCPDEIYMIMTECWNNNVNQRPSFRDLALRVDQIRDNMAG
Chain of TYK2 (P29597 whole entry): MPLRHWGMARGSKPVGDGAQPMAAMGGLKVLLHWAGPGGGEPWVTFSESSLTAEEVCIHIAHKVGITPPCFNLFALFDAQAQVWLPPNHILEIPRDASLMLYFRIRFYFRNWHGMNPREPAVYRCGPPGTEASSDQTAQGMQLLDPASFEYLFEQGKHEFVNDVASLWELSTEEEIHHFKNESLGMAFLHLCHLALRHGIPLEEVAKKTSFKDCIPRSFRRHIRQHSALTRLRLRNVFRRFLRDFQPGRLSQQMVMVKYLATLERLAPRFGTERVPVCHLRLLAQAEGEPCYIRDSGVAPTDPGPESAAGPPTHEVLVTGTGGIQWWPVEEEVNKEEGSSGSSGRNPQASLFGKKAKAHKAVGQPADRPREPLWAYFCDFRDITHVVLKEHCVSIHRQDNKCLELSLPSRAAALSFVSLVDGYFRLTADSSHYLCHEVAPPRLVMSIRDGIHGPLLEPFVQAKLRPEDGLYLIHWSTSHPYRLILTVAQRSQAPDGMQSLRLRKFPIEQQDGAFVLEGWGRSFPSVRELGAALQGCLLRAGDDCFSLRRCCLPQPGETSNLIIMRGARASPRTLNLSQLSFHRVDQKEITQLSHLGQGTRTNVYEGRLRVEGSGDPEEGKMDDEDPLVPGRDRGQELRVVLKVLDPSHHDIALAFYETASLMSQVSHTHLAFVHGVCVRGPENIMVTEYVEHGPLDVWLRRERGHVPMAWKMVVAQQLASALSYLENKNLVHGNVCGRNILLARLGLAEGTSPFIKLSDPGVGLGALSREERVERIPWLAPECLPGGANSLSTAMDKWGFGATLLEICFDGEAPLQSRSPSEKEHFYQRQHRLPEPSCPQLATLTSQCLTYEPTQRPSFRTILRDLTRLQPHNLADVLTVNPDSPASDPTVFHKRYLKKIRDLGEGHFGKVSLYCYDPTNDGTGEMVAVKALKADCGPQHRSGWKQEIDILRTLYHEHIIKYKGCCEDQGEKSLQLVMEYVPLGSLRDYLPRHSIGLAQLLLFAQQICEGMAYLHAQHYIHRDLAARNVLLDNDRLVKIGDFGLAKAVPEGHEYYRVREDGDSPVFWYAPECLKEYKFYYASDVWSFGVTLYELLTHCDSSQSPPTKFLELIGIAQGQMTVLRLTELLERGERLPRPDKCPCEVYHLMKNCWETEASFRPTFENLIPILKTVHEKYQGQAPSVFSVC
Chain of JAK 1 (P23458 whole entry): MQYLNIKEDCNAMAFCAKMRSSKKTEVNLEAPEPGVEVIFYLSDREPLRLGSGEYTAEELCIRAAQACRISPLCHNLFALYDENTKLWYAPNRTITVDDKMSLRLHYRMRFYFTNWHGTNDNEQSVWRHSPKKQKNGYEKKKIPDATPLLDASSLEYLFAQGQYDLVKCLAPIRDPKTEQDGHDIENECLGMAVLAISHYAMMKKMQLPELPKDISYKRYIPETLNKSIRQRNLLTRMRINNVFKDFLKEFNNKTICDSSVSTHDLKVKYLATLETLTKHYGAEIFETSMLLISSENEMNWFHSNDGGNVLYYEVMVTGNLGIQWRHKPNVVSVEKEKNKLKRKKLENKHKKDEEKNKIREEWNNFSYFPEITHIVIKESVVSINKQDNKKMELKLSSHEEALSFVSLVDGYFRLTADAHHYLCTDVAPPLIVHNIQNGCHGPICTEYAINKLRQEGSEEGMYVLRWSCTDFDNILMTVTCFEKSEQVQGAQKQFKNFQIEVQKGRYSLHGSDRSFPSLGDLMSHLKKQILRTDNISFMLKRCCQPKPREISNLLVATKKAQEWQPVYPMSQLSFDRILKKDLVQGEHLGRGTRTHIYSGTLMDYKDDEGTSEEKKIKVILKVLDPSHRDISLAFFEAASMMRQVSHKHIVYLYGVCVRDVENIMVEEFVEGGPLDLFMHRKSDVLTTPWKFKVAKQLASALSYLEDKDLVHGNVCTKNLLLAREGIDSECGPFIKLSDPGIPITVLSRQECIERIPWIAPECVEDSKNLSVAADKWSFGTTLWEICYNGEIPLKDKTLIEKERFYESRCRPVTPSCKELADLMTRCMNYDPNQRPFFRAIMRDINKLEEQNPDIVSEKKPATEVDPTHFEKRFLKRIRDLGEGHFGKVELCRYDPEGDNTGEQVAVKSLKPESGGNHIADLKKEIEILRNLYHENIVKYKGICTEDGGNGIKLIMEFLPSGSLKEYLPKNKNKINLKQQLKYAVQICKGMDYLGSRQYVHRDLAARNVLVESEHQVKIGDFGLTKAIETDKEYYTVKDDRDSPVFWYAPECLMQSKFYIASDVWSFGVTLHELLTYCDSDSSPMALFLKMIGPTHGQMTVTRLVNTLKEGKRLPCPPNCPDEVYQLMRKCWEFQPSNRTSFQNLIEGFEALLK

| SMILES | IC50 (JAK 2) | IC50 (TYK2) | IC50 (JAK 3) | IC50 (JAK 1) |
| --- | --- | --- | --- | --- |
| COc1ccc(S(C)(=O)=O)cc1-n1nc(C(=O)NCCCN(C)C)c2cnc(-c3cnn4cccnc34)cc21 [Example 83, N-(3-(dimethylamino)propyl)-1-(2-methoxy-5-(methylsulfonyl)phenyl)-6-(pyrazolo[1,5-a]pyrimidin-3-yl)-1H-pyrazolo[4,3-c]pyridine-3-carboxamide] | 5.01 to 50.1 nM | > 50.1 nM | 5.01 to 50.1 nM | 5.01 to 50.1 nM |
| COc1ccc(C(F)F)cc1-n1nc(C)c2cnc(Nc3ncc[nH]c3=O)cc21 [Example 91, 3-((1-(5-(difluoromethyl)-2-methoxyphenyl)-3-methyl-1H-pyrazolo[4,3-c]pyridin-6-yl)amino)pyrazin-2(1H)-one] | ≤ 5.01 nM | 5.01 to 50.1 nM | ≤ 5.01 nM | 5.01 to 50.1 nM |
| Cc1nn(-c2cc(S(=O)(=O)CCO)ccc2OC(F)F)c2cc(-c3cnn4cccnc34)ncc12 [Example 22, 2-((4-(difluoromethoxy)-3-(3-methyl-6-(pyrazolo[1,5-a]pyrimidin-3-yl)-1H-pyrazolo[4,3-c]pyridin-1-yl)phenyl)sulfonyl)ethan-1-ol] | ≤ 5.01 nM | 5.01 to 50.1 nM | ≤ 5.01 nM | 5.01 to 50.1 nM |
| COc1ccc(S(C)(=O)=O)cc1-n1nc(C(=O)NCCCN2CCOCC2)c2cnc(-c3cnn4cccnc34)cc21 [Example 84, 1-(2-methoxy-5-(methylsulfonyl)phenyl)-N-(3-morpholinopropyl)-6-(pyrazolo[1,5-a]pyrimidin-3-yl)-1H-pyrazolo[4,3-c]pyridine-3-carboxamide] | 5.01 to 50.1 nM | > 50.1 nM | 5.01 to 50.1 nM | 5.01 to 50.1 nM |
| CNc1nn(-c2cc(Cl)ccc2OC)c2cc(-c3cnn4cccnc34)ncc12 [Example 41, 1-(5-chloro-2-methoxyphenyl)-N-methyl-6-(pyrazolo[1,5-a]pyrimidin-3-yl)-1H-pyrazolo[4,3-c]pyridin-3-amine] | ≤ 5.01 nM | 5.01 to 50.1 nM | ≤ 5.01 nM | ≤ 5.01 nM |
| CC(=O)N1CCC(S(=O)(=O)c2ccc(OC(F)F)c(-n3nc(C)c4cnc(-c5cnn6cccnc56)cc43)c2)C1 (stereo not shown) [Example 24, 1-(3-((4-(difluoromethoxy)-3-(3-methyl-6-(pyrazolo[1,5-a]pyrimidin-3-yl)-1H-pyrazolo[4,3-c]pyridin-1-yl)phenyl)sulfonyl)pyrrolidin-1-yl)ethan-1-one] | ≤ 5.01 nM | > 50.1 nM | ≤ 5.01 nM | 5.01 to 50.1 nM |
| COc1ccc(S(=O)(=O)NCCN2CCN(C)CC2)cc1-n1nc(C)c2cnc(-c3cnn4cccnc34)cc21 [Example 18, 4-methoxy-3-(3-methyl-6-(pyrazolo[1,5-a]pyrimidin-3-yl)-1H-pyrazolo[4,3-c]pyridin-1-yl)-N-(2-(4-methylpiperazin-1-yl)ethyl)benzenesulfonamide] | 5.01 to 50.1 nM | > 50.1 nM | > 50.1 nM | 5.01 to 50.1 nM |
| CNCC(=O)Nc1nn(-c2cc(Cl)ccc2OC)c2cc(-c3cnn4cccnc34)ncc12 [Example 87, N-(1-(5-chloro-2-methoxyphenyl)-6-(pyrazolo[1,5-a]pyrimidin-3-yl)-1H-pyrazolo[4,3-c]pyridin-3-yl)-2-(methylamino)acetamide] | ≤ 5.01 nM | 5.01 to 50.1 nM | 5.01 to 50.1 nM | 5.01 to 50.1 nM |
| Cc1nn(-c2cc(S(=O)(=O)CC(N)=O)ccc2OC(F)F)c2cc(-c3cnn4cccnc34)ncc12 [Example 70, 2-((4-(difluoromethoxy)-3-(3-methyl-6-(pyrazolo[1,5-a]pyrimidin-3-yl)-1H-pyrazolo[4,3-c]pyridin-1-yl)phenyl)sulfonyl)acetamide] | ≤ 5.01 nM | > 50.1 nM | ≤ 5.01 nM | 5.01 to 50.1 nM |
| COCCSc1ccc(OC(F)F)c(-n2nc(C)c3cnc(Nc4ncc[nH]c4=O)cc32)c1 [Example 93, 3-((1-(2-(difluoromethoxy)-5-((2-methoxyethyl)thio)phenyl)-3-methyl-1H-pyrazolo[4,3-c]pyridin-6-yl)amino)pyrazin-2(1H)-one] | ≤ 5.01 nM | 5.01 to 50.1 nM | ≤ 5.01 nM | 5.01 to 50.1 nM |
| COc1ccc(S(=O)(=O)NCCCN2CCN(C)CC2)cc1-n1nc(C)c2cnc(-c3cnn4cccnc34)cc21 [Example 16, 4-methoxy-3-(3-methyl-6-(pyrazolo[1,5-a]pyrimidin-3-yl)-1H-pyrazolo[4,3-c]pyridin-1-yl)-N-(3-(4-methylpiperazin-1-yl)propyl)benzenesulfonamide] | 5.01 to 50.1 nM | > 50.1 nM | > 50.1 nM | > 50.1 nM |
| COc1ccc(Cl)cc1-n1ncc2c(NC(C)=O)nc(-c3cnn4cccnc34)cc21 [Example 55, N-(1-(5-chloro-2-methoxyphenyl)-6-(pyrazolo[1,5-a]pyrimidin-3-yl)-1H-pyrazolo[4,3-c]pyridin-4-yl)acetamide] | 5.01 to 50.1 nM | > 50.1 nM | > 50.1 nM | 5.01 to 50.1 nM |
| Cc1nn(-c2cc(Cl)ccc2OC(F)F)c2cc(-c3cnn4cccnc34)ncc12 [Example 11, 1-(5-chloro-2-(difluoromethoxy)phenyl)-3-methyl-6-(pyrazolo[1,5-a]pyrimidin-3-yl)-1H-pyrazolo[4,3-c]pyridine] | ≤ 5.01 nM | 5.01 to 50.1 nM | ≤ 5.01 nM | ≤ 5.01 nM |
| CNC(=O)CSc1ccc(OC(F)F)c(-n2nc(C)c3cnc(-c4cnn5cccnc45)cc32)c1 [Example 67, 2-((4-(difluoromethoxy)-3-(3-methyl-6-(pyrazolo[1,5-a]pyrimidin-3-yl)-1H-pyrazolo[4,3-c]pyridin-1-yl)phenyl)thio)-N-methylacetamide] | 5.01 to 50.1 nM | > 50.1 nM | 5.01 to 50.1 nM | 5.01 to 50.1 nM |
| CSc1ccc(Cl)cc1-n1nc(C)c2cnc(-c3cnn4cccnc34)cc21 [Example 5, 1-(5-chloro-2-(methylthio)phenyl)-3-methyl-6-(pyrazolo[1,5-a]pyrimidin-3-yl)-1H-pyrazolo[4,3-c]pyridine] | ≤ 5.01 nM | 5.01 to 50.1 nM | 5.01 to 50.1 nM | 5.01 to 50.1 nM |
| CNc1nc(-c2cnn3cccnc23)cc2c1cnn2-c1cc(Cl)ccc1OC [Example 52, 1-(5-chloro-2-methoxyphenyl)-N-methyl-6-(pyrazolo[1,5-a]pyrimidin-3-yl)-1H-pyrazolo[4,3-c]pyridin-4-amine] | 5.01 to 50.1 nM | > 50.1 nM | > 50.1 nM | > 50.1 nM |
| CNc1nn(-c2cc(S(C)(=O)=O)ccc2OC)c2cc(-c3cnn4cccnc34)ncc12 [Example 85, 1-(2-methoxy-5-(methylsulfonyl)phenyl)-N-methyl-6-(pyrazolo[1,5-a]pyrimidin-3-yl)-1H-pyrazolo[4,3-c]pyridin-3-amine] | ≤ 5.01 nM | > 50.1 nM | 5.01 to 50.1 nM | > 50.1 nM |
| CNCc1nn(-c2cc(Cl)ccc2OC(F)F)c2cc(-c3cnn4cccnc34)ncc12 [Example 31, 1-(1-(5-chloro-2-(difluoromethoxy)phenyl)-6-(pyrazolo[1,5-a]pyrimidin-3-yl)-1H-pyrazolo[4,3-c]pyridin-3-yl)-N-methylmethanamine] | 5.01 to 50.1 nM | > 50.1 nM | 5.01 to 50.1 nM | 5.01 to 50.1 nM |
| Cc1nn(-c2cc(C(=O)Nc3nccs3)ccc2OC(F)F)c2cc(-c3cnn4cccnc34)ncc12 [Example 66, 4-(difluoromethoxy)-3-(3-methyl-6-(pyrazolo[1,5-a]pyrimidin-3-yl)-1H-pyrazolo[4,3-c]pyridin-1-yl)-N-(thiazol-2-yl)benzamide] | 5.01 to 50.1 nM | > 50.1 nM | ≤ 5.01 nM | 5.01 to 50.1 nM |

Reference: patent US20240279240A1, “HETEROCYCLIC DERIVATIVES AS JANUS KINASE INHIBITORS” (CHIESI FARMACEUTICI S.P.A., priority 2021, published 2024)
